What was measured:
human BRCA1 promoter = experiment: BRCA1-luciferase reporter assay (Steady-Glo) in stably transfected MCF7 cells; format: cell-based; settings: for EC50 / EC90: MCF7-BRCA1-luciferase cells, dilution series; for BRCA1-luciferase activity (in words): MCF7 pGL4.14-hBRCA1.3 cells
Protocol: Hygromycin selected MCF7 cells were seeded in 384-well tissue culture plates. The first two columns of each plate were empty so as to include established positive and negative controls. Each of the remaining 352 wells contained a compound to be screened. MCF7 cells were incubated with the compounds for 48 hours. Luciferase activity was measured using the Steady Glo Luciferase Assay System (Promega). Briefly, 5×10^6 MCF7 cells were transfected with […] of purified pGL4.14 containing the human BRCA1 promoter (pGL4.14-hBRCA) with Effectene as per manufacturers protocol (Qiagen). Stable transfectants were selected with […] Hygromicin B. 1×10^5 or 2×10^5 stable transfectants were tested for luciferase activity with the Steady-Glo Luciferase Assay System (Promega).
Hygromycin selected MCF-7 cells (e.g., MCF7 clone pGL4.14-hBRCA1.3) stably transfected with the human BRCA1-luciferase reporter construct (e.g., pGL4.14-hBRCA1.3) were seeded in 384-well white tissue culture plates (Becton Dickenson, San Diego, Calif.) at 1×10^4 cells/well. These cells were then stimulated with indicated concentrations of genistein (Sigma-Aldrich, St. Louis, Mo.) for 0, 6, 9, 24 and 48 hours. Luciferase activity was measured using the Steady Glo Luciferase Assay System (Promega). The data shown in FIG. 3A is representative of 3 individual experiments.
Two different chemical libraries were screened for the ability to enhance BRCA1 gene expression. To examine the effects of each compound on BRCA1 expression, the human BRCA1 promoter was cloned and inserted upstream of the firefly luciferase gene in the plasmid pGL4.14 (BRCA1-Luc) (Promega), as described above. The ER positive human breast cancer cell line, MCF7, was transfected and stable transfectants were selected with hygromycin.
Briefly, compounds were plated in a 384 well plate in a total volume of 20 μl. A ten point dilution series was used at concentrations—100 µM, 10 μM, 1 μM, 100 nM, 10 nM, 1 nM, 0.1 nM, 0.01 nM, 0.0001 nM, 0 (DMSO vehicle only). A second dilution series of 100 μM, 32.5 μM, […], 3.6 μM, 1.2 μM, 400 nM, 132.2 nM, 45 nM, 14.8 nM, 5 nM, and 1.65 nM was also used. MCF7-BRCA1-luciferase cells were added to the compounds at a concentration of 1×10^4 cells/well in a volume of 25 μl. The 384 well plates, containing the compounds+cells, were then incubated at 37° C. for 48 hours. After 48 hours, luciferase activity was measured with the Steady-Glo® Luciferase Assay System (Promega, Madison, Wis.).

MCF7 cells = experiment: Cell viability of MCF7 cells (CellTiter 96 AQueous One); format: cell-based, human; settings: 48 hours
Protocol: Additionally, the compounds were tested for cell viability. Compounds were plated at 2× in 50 μl MEM in triplicate in a clear 96 well tissue culture plate. A ten point dilution series was used at concentrations—100 μM, 10 μM, 1 μM, 100 nM, […], 1 nM, 0.1 nM, 0.01 nM, 0.0001 nM, 0 (DMSO vehicle only). MCF7 cells (5×10^3) were added in a volume of 50 μl MEM to the appropriate wells, diluting the compounds to 1×. Cells were incubated at 37° C. for 48 hours. 20 μl of CellTiter 96® AQueous One Solution Reagent (Promega) was added to each well and incubated for 3 hours at 37° C. Absorbance was measured at 490 nm using the Perkin Elmer Victor 3V plate reader. Absorbance signals were normalized to DMSO vehicle control and were expressed as percent viable.

BRCA1 protein = BRCA1 protein expression in MCF7 cells by Western blot; format: cell-based, human; settings: 48 hours, compared to DMSO
Protocol: Compounds 29 and 30 were studied for BRCA1 and actin (e.g., housekeeping gene for normalization) protein expression. Briefly, MCF7 cells (2×10^6) in 2 ml MEM were plated in a 6 well tissue culture plate and were either left nonstimulated or treated with DMSO (vehicle control), […] Genistein, or 3 different concentrations of indicated test compound—3.65 μM, […], 32.5 μM. Following incubation at 37° C. for 48 hours, the media was removed and the cells were washed 1× with 500 μl of ice cold PBS. Another 500 μl of ice cold PBS was then added and the cells were scraped off the well and transferred to a microcentrifuge tube. To ensure all cells were removed from the well, an additional […] of ice cold PBS was added to the well and any remaining cells were combined with the initial cell harvest into the microcentrifuge tube. The cells were then pelleted by centrifugation for 5 min at 3000 rpm, 4° C. The supernate was removed and the pellet was then lysed in 150 μl of ice cold RIPA buffer+1× protease inhibitors, on ice for 30 minutes, vortexing occasionally. The cellular debris was then removed by centrifugation for 20 minutes at 11,000 rpm, 4° C. The remaining supernate, containing the extracted proteins, was then transferred to a microcentrifuge tube and quantified using the Bio-Rad DC assay. 100 μg of protein+1×SDS-PAGE sample buffer was loaded onto an 8% Tris glycine gel. The proteins were separated in a tris glycine running buffer at 125 volts for 90 minutes. The proteins were then transferred out of the gel onto PVDF in an overnight transfer with 20% methanol at 35 volts, 4° C. The PVDF membrane was then blocked with 5% milk/PBST (0.1%) for 1 hour at room temperature (RT). BRCA1 protein was detected using anti-BRCA1 (Ab-1, EMD Biosciences) at a 1:250 dilution in 3% milk/PBST, overnight at 4° C. […] To monitor equal protein loading, actin was detected using anti-actin at a 1:200,000 dilution in 5% milk/PBST for 1 hr at RT. […] Chemiluminescence was detected using the SuperSignal West Femto kit made by Pierce Biotechnology and the UVP imaging center. […]

| EC50 (human BRCA1 promoter; Homo sapiens, MCF7, 48 h) [µM] | EC90 (human BRCA1 promoter; Homo sapiens, 48 hours) [µM] | Compound | further results |
| --- | --- | --- | --- |
| – | – | Cc1ccc(-c2nc3ccc(NCc4cccs4)cc3o2)cc1 [Cmpd 25] | EC50 (human BRCA1 promoter; 48 hours): 8.63 µM |
| 50.3 | 170 | N/C(=N\OC(=O)c1ccoc1)c1ccc(Br)cc1 [Cmpd 20] | – |
| 6.96 | – | O=C(Nc1ccc(Br)cn1)c1ccc(Oc2ccccc2)cc1 [Cmpd 28] | – |
| 70.5 | 967 | CC(C)(C)C(=O)Nc1cccc(C(=O)Nc2ccc(Cl)cc2)c1 [Cmpd 2] | toxicity (cell viability) compared to genistein (MCF7 cells): less toxic compared to genistein |
| 2.05 | 4.94 | Clc1cccc(CNc2ccc3[nH]c(-c4ccco4)nc3c2)c1 [JN1-82] | BRCA1-luciferase activity (in words) (human BRCA1 promoter; 48 hours): rank with the other top compounds and genistein |
| – | ~38.8 | O=C(COc1cccc2cccnc12)N1CCc2ccccc21 [Cmpd 16] | – |
| 0.729 | 1.77 | COc1ccc(-c2nc3cc(C)ccc3o2)cc1N [Cmpd 4] | – |
| 4.88 | 71.5 | CC(=O)c1ccc(/N=C/c2ccc(OCc3ccc(F)cc3)cc2)cc1 [Cmpd 31] | – |
| 0.218 | 2.56 | Cc1cccc(-c2noc(-c3cccs3)n2)c1 [Cmpd 10] | – |
| 20.6 | 79.4 | CC(=O)c1cc(C#N)c(SC/C=C/c2ccccc2)nc1C [Cmpd 19] | – |
| 25.8 | 110 | Cc1cccc(/C=N/c2ccc3[nH]c(-c4ccco4)nc3c2)c1 [JN1-72] | – |
| 1.3 | 10.1 | O=C(Nc1ccc(Cl)c(Cl)c1)c1ccccc1Br [Cmpd 9] | BRCA1-luciferase activity (in words) (human BRCA1 promoter; 48 hours): comparatively superior, but similar to Compound 8 and 10 |
| 6.77 | 80.5 | O/N=C(\CSc1nc2ccccc2[nH]1)c1ccccc1 [Cmpd 11] | BRCA1-luciferase activity (in words) (human BRCA1 promoter; 48 hours): comparatively superior to Compound 13 |
| 1.64 | 24.2 | Fc1ccc(-c2nnc(-c3ccc(F)cc3)o2)cc1 [Cmpd 6] | – |
| 2060 | ~63700 | O=C(CSc1nc(=O)cc(O)[nH]1)c1ccccc1 [Cmpd 7] | – |
| 3.53 | 8.84 | c1ccc(CNc2ccc3[nH]c(-c4ccco4)nc3c2)cc1 [JN1-68] | BRCA1-luciferase activity (in words) (human BRCA1 promoter; 48 hours): rank with the other top compounds and genistein |
| 17.4 | 49.4 | Fc1cccc(/C=N/c2ccc3[nH]c(-c4ccco4)nc3c2)c1 [JN1-78] | – |
| 1.67 | 15.8 | Cn1nnc(-c2ccc(OCc3ccccc3F)cc2)n1 [Cmpd 12] | BRCA1-luciferase activity (in words) (human BRCA1 promoter; 48 hours): comparatively superior to Compound 13 |

| EC50 (human BRCA1 promoter; Homo sapiens, MCF7, 48 h) [µM] | EC90 (human BRCA1 promoter; Homo sapiens, 48 hours) [µM] | Compound | further results |
| --- | --- | --- | --- |
| 2.42 | 5.94 | Fc1cccc(CNc2ccc3[nH]c(-c4ccco4)nc3c2)c1 [JN1-76] | BRCA1-luciferase activity (in words) (human BRCA1 promoter; 48 hours): rank with the other top compounds and genistein |
| 11.2 | 17.2 | Cc1[nH]n(-c2ccc([N+](=O)[O-])cc2)c(=O)c1/C=N/C1CCCC1 [Cmpd 18] | – |
| – | 366 | Cc1ccc(-c2nc3ccc(NCc4cccs4)cc3o2)cc1 [Cmpd 26] | EC50 (human BRCA1 promoter; 48 hours): 28.7 µM |
| – | – | O=c1c(-c2ccc(O)cc2)coc2cc(O)ccc12 [Daidzein, reference compound] | BRCA1-luciferase activity (in words) (human BRCA1 promoter; 48 hours): dose-dependent increase in BRCA1-luciferase activity |
| 69.6 | 377 | COc1ccccc1OCC(=O)O/N=C(\N)c1ccccn1 [Cmpd 13] | – |
| 9.43 | 46.8 | COc1ccc2c(c1OC)C(=O)N(c1ccc(C)cc1)C2 [Cmpd 32] | – |
| 2150 | – | N/C(=N\OC(=O)Cc1cccs1)c1ccc(Cl)cc1 [Cmpd 8] | – |
| 8.73 | 47.3 | Cc1cc(C(=O)Nc2ccc(N3CCOCC3)cc2)ccc1[N+](=O)[O-] [Cmpd 3] | BRCA1-luciferase activity (in words) (human BRCA1 promoter; 48 hours): comparatively superior |
| 10.7 | ~11.8 | COc1ccc(/C=N/c2ccc3[nH]c(-c4ccccc4)nc3c2)cc1OC [Cmpd 23] | – |
| 11.6 | ~13.8 | Fc1ccc(Nc2nc(-c3ccccc3)cs2)cc1 [Cmpd 5] | – |
| 0.948 | 2.85 | Cc1ccc(C(=O)Nc2ccc3c(c2)oc2ccccc23)o1 [Cmpd 17] | – |
| 11 | 20.7 | COc1ccc(/C(O)=C\C=N\c2ccccc2OC)cc1 [Cmpd 22] | – |
| 14.5 | 25 | O=c1c(-c2ccc(O)cc2)coc2cc(O)cc(O)c12 [Genistein, genistein, reference compound] | BRCA1-luciferase activity (in words) (human BRCA1 promoter; 48 hours): dose-dependent increase in BRCA1-luciferase activity; BRCA1-luciferase activity (in words) (human BRCA1 promoter; 48 hours, listed as genistein): increase in BRCA1-luciferase activity; BRCA1 protein expression (BRCA1 protein): increase in BRCA1 protein |
| 106 | 998 | CC(C)c1ccc(OCC(=O)O/N=C(\N)c2ccncc2)c(Br)c1 [Cmpd 14] | BRCA1-luciferase activity (in words) (human BRCA1 promoter; 48 hours): comparatively superior to Compound 13 |
| 34.9 | 196 | Clc1cccc(/C=N/c2ccc3[nH]c(-c4ccco4)nc3c2)c1 [JN1-77] | – |
| 6.82 | 54.9 | Oc1c(F)cccc1/C=N/c1ccc2oc(-c3ccccc3)nc2c1 [Cmpd 1] | toxicity (cell viability) compared to genistein (MCF7 cells): less toxic compared to genistein |
| 11.2 | ~9.72 | Cc1ccc(/C(O)=C/C=N/c2cccc(Cl)c2C)cc1 [Cmpd 21] | – |
| – | 0.00186 | NNC(=O)c1nc(-c2ccccc2)cc(-c2ccccc2)n1 [Cmpd 27] | – |
